[UNA] = unlocked nucleic acid; m = 2'-O-methyl; r = 2'-OH (RNA)
Key:
[1] = lipid; cited from earlier work
[2] = test system: V30M gene reporter variant (nucleotide sequence 264 to 304 of human TTR containing the point mutation at position 284); assay: PSICHECK reporter assay against V30M gene reporter variant; format: cell-based; settings: for effectiveness against V30M compared with V30V: V30V and V30M gene reporter variants; for selectivity against V30M over V30V: IC50 against V30V over IC50 against V30M; for IC50: V30M gene reporter variant
Method: (§1) Conventional siRNAs that are complementary to the […] mRNA were tiled around position 284. […] Positions 5, 9, 14 and 15 appear to be more accessible to silencing than other positions. […] Four conventional siRNA variations, namely V30M-P5, V30M-P9, V30M-P14, and V30M-P15, were prepared.
(§2) Thus, the selectivity of the conventional siRNAs against V30M over V30V was no more than 5.6.

[3] = test system: V30V gene reporter variant (nucleotide sequence 264 to 304 of human TTR without the point mutation at position 284); assay: PSICHECK reporter assay against V30V gene reporter variant; format: cell-based
Method: as §1, §2

Transthyretin TTR mRNA = assay: Knockdown of TTR protein in plasma of Cynomolgus monkeys after single IV dose of liposomal UNA oligomer (LC-MS/MS SRM); format: in vivo, Cynomolgus monkeys (Macaca fascicularis)
Method: A single-dose, pharmacokinetic and pharmacodynamic study of liposomally formulated UNA Oligomers targeting transthyretin (TTR) mRNA following intravenous infusion in Cynomolgus monkeys was performed.
Cynomolgus monkeys (Macaca fascicularis) were selected for this study because the TTR mRNA of Cynomolgus monkeys is homologous to human TTR mRNA, making them a good model for screening the potency of UNA oligomers targeting to TTR mRNA.
In this study, the knockdown of Transthyretin protein was evaluated as a result of treatment with UNA oligomers targeting Transthyretin TTR mRNA, based on SEQ ID NOs:46/86, 59/99, and 60/100, delivered in a liposomal formulation to male Cynomolgus monkeys. Measurements were made following a single intravenous (IV) dose administration. TTR protein concentration in plasma samples was assessed by LC-MS/MS at various time points.
Animals in Groups 1 through 8 were administered the test articles on Day 1 at 0.3 mg/kg, dose volume 6.25 mL/kg, concentration 0.048 mg/mL. Doses were administered as a 15-minute intravenous (IV) infusion, +1 minute, using a pump and disposable syringe.
For each animal, infusion start and end times were recorded; and subsequent sample collection target times were determined based on infusion end time (t=0). All blood specimens, approximately 1 mL, were collected by venipuncture from a peripheral vein from restrained, conscious animals.
The Monkey TTR SRM assay was used, which is a high throughput absolute protein quantitation assay using Selected Reaction Monitoring (SRM) technology platform. In a single SRM assay, the panel can multiplex up to 200 proteins. The assay was performed on a targeted absolute protein quantitation platform, where the key technology was SRM, sometimes also referred to as Multiple Reaction Monitoring (MRM). In a triple-quadrupole (QQQ) mass spectrometer, SRM/MRM is a tandem selection process where selecting peptides by precursor m/z is followed by selecting fragmentations (transitions) of the targeted peptide.

| Molecule | silencing V30M TTR [2] | activity compared to the conventional siRNA, each targeted to V30M [2] | selectivity against V30M over V30V compared to the conventional siRNA [2] | effectiveness against V30M compared with V30V [2] | other results |
| --- | --- | --- | --- | --- | --- |
| CCCCCC/C=C\COC(=O)CCCCCCCN(CCCCCCCC(=O)OC/C=C\CCCCCC)C(=O)CSCCCN(CC)CC [ATX- 008] | – | – | – | – | pKa [1]: 10 |
| CCCCCC/C=C\COC(=O)CCCCCCCN(CCCCCCCC(=O)OC/C=C\CCCCCC)C(=O)SCCCN(CC)CC [ATX- 012] | – | – | – | – | pKa [1]: 10 |
| ĞCCAUGCAUGUGUUCAGAAŨmU / UUCUGAACACAUGCAUĞGCŨmU (chain 1 GCCAUGCAUGUGUUCAGAAUU; chain 2 UUCUGAACACAUGCAUGGCUU; siRNA; chain 1: sugars from the 5' end [UNA]1 r18 [UNA]1 m1, backbone not given here; chain 2: sugars from the 5' end r16 [UNA]1 r2 [UNA]1 m1, backbone not given here) [P16U17] | effective in silencing V30M TTR | – | – | – | – |
| ĞCCAUGCAUGUGUUCAGAAŨmU / UUCUGAACACAUGCAŨGGCŨmU (chain 1 GCCAUGCAUGUGUUCAGAAUU; chain 2 UUCUGAACACAUGCAUGGCUU; siRNA; chain 1: sugars from the 5' end [UNA]1 r18 [UNA]1 m1, backbone not given here; chain 2: sugars from the 5' end r15 [UNA]1 r3 [UNA]1 m1, backbone not given here) [P16U16] | effective in silencing V30M TTR | superior to the activity of the conventional siRNA V30M-P16 | substantially greater than for the conventional siRNA V30M-P16 | more effective against V30M than V30V | – |
| ĞCCAUGCAUGUGUUCAGAAŨmU / UUCUGAACACAUGCÃUGGCŨmU (chain 1 GCCAUGCAUGUGUUCAGAAUU; chain 2 UUCUGAACACAUGCAUGGCUU; siRNA; chain 1: sugars from the 5' end [UNA]1 r18 [UNA]1 m1, backbone not given here; chain 2: sugars from the 5' end r14 [UNA]1 r4 [UNA]1 m1, backbone not given here) [P16U15] | effective in silencing V30M TTR | superior to the activity of the conventional siRNA V30M-P16 | substantially greater than for the conventional siRNA V30M-P16 | more effective against V30M than V30V | – |
| ĞCCAUGCAUGUGUUCAGAAŨmU / UUCUGAÃCACAUGCAUGGCŨmU (chain 1 GCCAUGCAUGUGUUCAGAAUU; chain 2 UUCUGAACACAUGCAUGGCUU; siRNA; chain 1: sugars from the 5' end [UNA]1 r18 [UNA]1 m1, backbone not given here; chain 2: sugars from the 5' end r6 [UNA]1 r12 [UNA]1 m1, backbone not given here) [P16U7] | effective in silencing V30M TTR | superior to the activity of the conventional siRNA V30M-P16 | substantially greater than for the conventional siRNA V30M-P16 | more effective against V30M than V30V | – |
| ĞCCAUGCAUGUGUUCAGAAŨmU / UUCUGÃACACAUGCAUGGCŨmU (chain 1 GCCAUGCAUGUGUUCAGAAUU; chain 2 UUCUGAACACAUGCAUGGCUU; siRNA; chain 1: sugars from the 5' end [UNA]1 r18 [UNA]1 m1, backbone not given here; chain 2: sugars from the 5' end r5 [UNA]1 r13 [UNA]1 m1, backbone not given here) [P16U6] | effective in silencing V30M TTR | superior to the activity of the conventional siRNA V30M-P16 | substantially greater than for the conventional siRNA V30M-P16 | more effective against V30M than V30V | superiority of selectivity over the selectivity of 5.6 of the conventional siRNA [2]: 4 fold; selectivity against V30M over V30V [2]: 23; IC50 [2]: 0.0924 nM; IC50 [3]: 2.12 nM |
| ĞGCCAUGCAUGUGUUCAGAŨmU / UCUGAACACAUGCAUĞGCCŨmU (chain 1 GGCCAUGCAUGUGUUCAGAUU; chain 2 UCUGAACACAUGCAUGGCCUU; siRNA; chain 1: sugars from the 5' end [UNA]1 r18 [UNA]1 m1, backbone not given here; chain 2: sugars from the 5' end r15 [UNA]1 r3 [UNA]1 m1, backbone not given here) [P15U16] | effective in silencing V30M TTR | – | substantially greater than for the conventional siRNA V30M-P15 | more effective against V30M than V30V | – |
| ĞGCCAUGCAUGUGUUCAGAŨmU / UCUGAACACAUGCAŨGGCCŨmU (chain 1 GGCCAUGCAUGUGUUCAGAUU; chain 2 UCUGAACACAUGCAUGGCCUU; siRNA; chain 1: sugars from the 5' end [UNA]1 r18 [UNA]1 m1, backbone not given here; chain 2: sugars from the 5' end r14 [UNA]1 r4 [UNA]1 m1, backbone not given here) [P15U15] | effective in silencing V30M TTR | – | substantially greater than for the conventional siRNA V30M-P15 | more effective against V30M than V30V | – |
| ĞGCCAUGCAUGUGUUCAGAŨmU / UCUGAACACAUGCÃUGGCCŨmU (chain 1 GGCCAUGCAUGUGUUCAGAUU; chain 2 UCUGAACACAUGCAUGGCCUU; siRNA; chain 1: sugars from the 5' end [UNA]1 r18 [UNA]1 m1, backbone not given here; chain 2: sugars from the 5' end r13 [UNA]1 r5 [UNA]1 m1, backbone not given here) [P15U14] | effective in silencing V30M TTR | – | – | – | – |
| ĞGCCAUGCAUGUGUUCAGAŨmU / UCUGAAĈACAUGCAUGGCCŨmU (chain 1 GGCCAUGCAUGUGUUCAGAUU; chain 2 UCUGAACACAUGCAUGGCCUU; siRNA; chain 1: sugars from the 5' end [UNA]1 r18 [UNA]1 m1, backbone not given here; chain 2: sugars from the 5' end r6 [UNA]1 r12 [UNA]1 m1, backbone not given here) [P15U7] | effective in silencing V30M TTR | – | substantially greater than for the conventional siRNA V30M-P15 | more effective against V30M than V30V | – |
| ĞGCCAUGCAUGUGUUCAGAŨmU / UCUGAÃCACAUGCAUGGCCŨmU (chain 1 GGCCAUGCAUGUGUUCAGAUU; chain 2 UCUGAACACAUGCAUGGCCUU; siRNA; chain 1: sugars from the 5' end [UNA]1 r18 [UNA]1 m1, backbone not given here; chain 2: sugars from the 5' end r5 [UNA]1 r13 [UNA]1 m1, backbone not given here) [P15U6] | effective in silencing V30M TTR | superior to the activity of the conventional siRNA V30M-P15 | substantially greater than for the conventional siRNA V30M-P15 | more effective against V30M than V30V | superiority of selectivity over the selectivity of 5.6 of the conventional siRNA [2]: 4 fold; selectivity against V30M over V30V [2]: 24; IC50 [2]: 0.0376 nM; IC50 [3]: 0.92 nM |
| ŨAACCAAGAGUAUUCCAUUŨmU / AAUGGAAUACUCUUGGUUAŨmU (chain 1 UAACCAAGAGUAUUCCAUUUU; chain 2 AAUGGAAUACUCUUGGUUAUU; siRNA; chain 1: sugars from the 5' end [UNA]1 r18 [UNA]1 m1, backbone not given here; chain 2: sugars from the 5' end r19 [UNA]1 m1, backbone not given here) [SEQ ID NO:60/100] | – | – | – | – | knockdown of TTR (Transthyretin TTR mRNA; at 20 days, single IV dose 0.3 mg/kg, primates): over 91%; knockdown of TTR (Transthyretin TTR mRNA; continuous duration of more than 20 days, single IV dose 0.3 mg/kg, primates): more than 70%; TTR protein levels (Transthyretin TTR mRNA; continuous duration of more than one month (30 days), single injection, primates): below 50%; knockdown of Transthyretin protein in vivo (Transthyretin TTR mRNA; liposomal formulation, male Cynomolgus monkeys, single IV dose 0.3 mg/kg, plasma): achieved |
